Reference: US11234992B2, “Methods and therapies for treating atherosclerosis and/or hyperlipidemia using oligosaccharides” (The Regents of the University of California, priority 2018, dated 2022)
Converted amounts (≈) assume the structure as drawn. “Also recorded” adds a separate entry of the source. One block for each compound: values may come before it.

What was measured:
[1] = test system: IL-6; test: Attenuation of IL-6 cytokine expression (IC50); assay type: cell-based
Method: (§1) In particular, pooled HMOs (˜100 μg/mL) attenuated LPS-induced M1 polarization and importantly its subsequent cytokine expression (IL-1β, IL-6, etc. mRNA and protein levels) in a mouse macrophage cell line (RAW246) and in primary bone marrow derived macrophages (BMDM). […] Moreover, the attenuation effects remain when cells are stimulated with LipidA instead of LPS, excluding carbohydrate-carbohydrate interactions between LPS and HMOs above the cell surface.

[2] = test system: mice on a high fat diet (HFD); test: In vivo atherosclerosis/hyperlipidemia mouse model on high fat diet; conditions: for inflammation in the liver, adipose tissue and arterial vessel wall / systemic secretion of pro-inflammatory cytokines like IL-1β and IL-6: in vitro and in vivo studies
Method: FIG. 1 provides a diagram of a mouse model used to test 3′SL effects on atherosclerosis. In particular, the mice are fed a high fat diet for two weeks prior to treatment in order to promote atherosclerosis in the mice. Treatment begins at the end of the second week with 3′SL or vehicle, whereby 3′SL or vehicle are administered to the mice twice daily at a dose of 90 mg/gavage. After 6 weeks of treatment, the mice are sacrificed and atherosclerosis lesions and plaques are assessed.
The complex pathology of atherosclerosis is characterized by the accumulation of lipids, inflammatory cells, and fibrous elements in large- and medium-sized arteries. According to the “response-to-retention” model, focal infiltration and retention of apolipoprotein B (apoB)-containing lipoproteins, such as low-density lipoproteins (LDLs), lipoprotein (a), and triglyceride-rich remnant particles (TRLs), in the subendothelial matrix of the tunica intima of arteries at atherosclerosis-prone sites initiates atherogenesis. Subsequent oxidation, lipolysis, proteolysis, and further aggregation of trapped LDL particles contribute to a chronic inflammatory response characterized by monocyte and T cell migration into the intima. Monocytes entering the plaque differentiate into macrophages and the expression of scavenger receptors result in internalization of modified lipoprotein particles. Lesion macrophages proliferate, accumulate massive amounts of cholesterol, and become lipid droplet-loaded “foam cells,” resulting in their retention in the lesion. Atherosclerosis is further characterized by the accumulation of M1-like macrophages and secretion of characteristic cytokines and chemokines. Priming of macrophages is sufficient to promote increased macrophage infiltration and inflammation in aorta, exacerbating atherosclerosis. […] Therefore, we will use Ldlr^−/− mice with a hypercholesterolemic background to study atherosclerosis development, which has several advantages: (1) cholesterol in Ldlr^−/− mice is mainly restricted to LDL particles resembling the situation in humans; (2) because of the minor importance of Ldlr in bone marrow derived cells related to atherosclerosis, the Ldlr^−/− mice are a very suitable model to study the role of candidate genes in these cells; (3) initiation of atherosclerotic plaque development can be highly controlled, as atherosclerosis will develop only upon feeding a high-fat/high-cholesterol diet.
Atherogenesis is determined by “en face” preparation of the entire aorta and Sudan IV staining to determine lipid infiltration as a measure for lesion surface as described in Gordts et al. (Arterioscler Thromb Vasc Biol. 29:1258-64 (2009)). In addition, the heart is isolated for sectioning of the aortic root to determine aortic root lesion area and qualitative assessment of the plaque phenotype. Aortic root cross-sectional atherosclerosis is measured by cutting 10 μm paraffin sections starting at the aortic valve plane and covering 1,000 μm in 100-μm increments. Two approaches are used to assess if 3′SL administration affects plaque stability and inflammatory cell composition in atherosclerotic plaques. Sections are immunostained using various antibodies to identify smooth muscle cells and macrophages and apoB content as well as the presence of oxidation-specific antibodies reflective of OxLDL. The extracellular content is visualized via staining using Oil red O (lipids), Hematoxylin and Eosin (necrotic core), Movat Pentachrome (proteoglycans), Masson-Goldner (collagen) and Verhoeffs van Gieson (elastin) staining protocols. As a measurement of the clinically relevant plaque vulnerability/stability in advanced lesions, fibrous cap thickness is determined by comparing serial sections each stained for smooth muscle cells and collagens, and the extent of necrosis will be quantified using imaging techniques as described in Gordts P L et al. (Cell Metabolism 20:813-26 (2014)). […]

[3] = test system: IL-1β; test: Attenuation of IL-1β cytokine expression (IC50); assay type: cell-based; conditions: cell type not given
Method: as §1

[4] = test system: primary bone marrow derived macrophages (BMDM); test: LPS-induced M1 polarization and cytokine expression in primary bone marrow derived macrophages; assay type: cell-based; conditions: primary mouse cells; preliminary results
Method: as §1
(§2) Here, the aim is to test whether the results translate to in vivo efficacy in a short-term and a long-term disease model of chronic inflammation. Rheumatoid arthritis (RA) is an inflammatory disorder that affects approximately 1% of the adult population worldwide. It is characterized by systemic and local inflammation that leads to cartilage and bone destruction. Collagen antibody-induced arthritis (CAIA) is a simple RA mouse model that can be used to address questions of pathogenic mechanisms and to screen candidate therapeutic agents. Arthritis is induced by the systemic administration of a cocktail of monoclonal antibodies that target various regions of collagen type II, which is one of the major constituents of articular cartilage matrix proteins, together with LPS. […]

[5] = test system: MAPK pathway; test: Downstream signalling in BMDM, MAPK pathway; assay type: cell-based, mouse; conditions: in the absence and presence of LPS
Method: as §1
To elucidate the receptor, signaling pathway and downstream transcription regulated by 3′SL in BMDM, a three-prong approach is utilized: (a) Whole Transcriptome Shotgun Sequencing (WTSS) is used to identify differentially regulated genes. […] In both approaches, naive BMDM is compared with 3′SL-treated BMDM as well LPS-stimulated BMDM and LPS-treated BMDM co-treated with 3′SL; and (c) A 3′SL affinity matrix is generated to run macrophage plasma membrane and isolate 3′SL binding proteins. Proteins are eluted from the matrix using different salt gradients and analyzed by silvers staining. Relevant elution fraction and individual protein bands are isolated and prepared for mass-spectrometry analysis. The above three-way approach allows for the identification of the receptor, signaling pathway and downstream transcription that is regulated by 3′SL. […]

[6] = test system: LPS-activated Thp-1 cells (human cell line); test: Cytokine expression in LPS-activated Thp-1 cells; assay type: cell-based
[7] = test system: mouse macrophage cell line (RAW246); test: LPS-induced M1 polarization and cytokine expression in mouse macrophage cell line; assay type: cell-based; conditions: preliminary results
Method: as §1, §2

[8] = summary statement, lipid metabolism

Compound: CC(=O)N[C@H]1[C@H]([C@H](O)[C@H](O)CO)O[C@@](OC[C@H]2O[C@@H](O[C@H]3[C@H](O)[C@@H](O)[C@H](O)O[C@@H]3CO)[C@H](O)[C@@H](O)[C@H]2O)(C(=O)O)C[C@@H]1O [6′SL, 6′-sialyllactose]
therapeutic effect ([1]; test not specified, stated directly after the 3′SL cytokine IC50 values): therapeutic effect
inflammation in the liver, adipose tissue and arterial vessel wall ([2]; summary statement): attenuate
systemic secretion of pro-inflammatory cytokines like IL-1β and IL-6 ([2]; summary statement): suppresses

IC50 ([1]; cell type not given): ~16.5 µg/mL (≈ 26 µM)
IC50 [3]: ~44.4 µg/mL (≈ 70.1 µM)
Compound: CC(=O)NC1C(O)CC(OC2C(O)C(CO)OC(OC(C(O)CO)C(O)C(O)C=O)C2O)(C(=O)O)OC1C(O)C(O)CO (stereo not drawn) [3′SL, 3′-sialyllactose]
LPS-induced M1 polarization and subsequent cytokine expression (IL-1b, IL-6, etc. mRNA and protein levels) [4]: attenuates
down-stream activation of the MAPK pathway [5]: regulate down-stream activation
cytokine expression ([6]; LPS-activated Thp-1 cells): effectively reduced
LPS-induced M1 polarization and subsequent cytokine expression (IL-1b, IL-6, etc. mRNA and protein levels) ([6]; human cell line, preliminary results): attenuates
plasma triglycerides (TG) levels ([2]; mice on high fat diet, 3′SL twice daily 90 mg/gavage for 6 weeks vs vehicle, FIG. 2A): lower plasma triglyceride levels; also recorded: significant decrease
cholesterol levels ([2]; mice on high fat diet, 3′SL twice daily 90 mg/gavage for 6 weeks vs vehicle, FIG. 2B): lower cholesterol levels; also recorded: significant decrease
lesion area of atherosclerotic lesions (En Face) ([2]; mice on high fat diet, 3′SL twice daily 90 mg/gavage for 6 weeks vs vehicle, FIG. 3A): smaller lesion areas; also recorded: significantly reduced in size
aortic plaque size ([2]; mice on high fat diet, 3′SL twice daily 90 mg/gavage for 6 weeks vs vehicle, FIG. 3B): smaller sized plaques; also recorded: significantly reduced
inflammation in the liver, adipose tissue and arterial vessel wall ([2]; summary statement): attenuate
systemic secretion of pro-inflammatory cytokines like IL-1β and IL-6 ([2]; summary statement): suppresses
lipase activity [2, 8]: promoting
postprandial lipid clearance [2, 8]: promoting
LPS-induced M1 polarization and subsequent cytokine expression (IL-1b, IL-6, etc. mRNA and protein levels) [7]: attenuates
